The source of these data is PMC5978884, “Dissection of the antimicrobial and hemolytic activity of Cap18: Generation of Cap18 derivatives with enhanced specificity” (PLoS ONE, 2018).

The conditions of data set [1]: previous study; cited from earlier work. The text has this: It must be expected that AMPs during evolution have evolved towards a high general activity against multiple microorganisms. In this study, we address the issues of species specificity, hemolytic activity and antimicrobial activity of Cap18, a α-helical peptide of the cathelicidin family.
Data set [2] has as its system Salmonella enterica serovar Typhimurium LT2. The experiment in a line: microbe, parasite or virus in culture. The data set is classed as cell-based. The following applies: LT2. The procedure: (§1) All strains were grown in Mueller-Hinton-II medium, except L. monocytogenes which was grown in BHI medium and L. lactis which was grown in MRS medium. Incubation took place aerobically at 37°C, except for Y. ruckeri and A. salmonicida, which were grown aerobically at RT (20 °C), and L. lactis grown aerobically at 30°C. All plates were incubated for 16–21 hours.
(§2) The minimum inhibitory concentrations (MICs) of the AMPs were measured in 96-well microtiter plates according the Clinical and Laboratory Standards Institute (CLSI, formerly National Committee for Clinical Laboratory Standards [NCCLS]). Briefly, liquid Mueller-Hinton-II medium containing increasing concentrations of AMPs is inoculated with a defined number of cells (approx. 10^5 CFUs/ml) in 96-well microtiter plates (polypropylene), whereas each plate also includes a positive growth control and a negative control (sterile control). The range of peptide concentrations analyzed was 0.125–64 μg/ml for the high purity peptides and 0.06–32 μg/ml for peptides of the variant library. After incubation, the MIC is determined by the lowest concentration showing no visible growth. All plates were incubated for 16–20 hours. The MIC of the reference antibiotics was determined by the use of Sensititre panels (Trek Diagnostic Systems Ltd, East Grinstead, UK).

The subject of data set [3] is Aeromonas salmonicida ATCC33658. The experiment in a line: microbe, parasite or virus in culture. Format: cell-based. The following applies: ATCC33658. The procedure: as §1, §2
Data set [4] concerns Yersinia ruckeri 392/2003. The experiment in a line: microbe, parasite or virus in culture. Format: cell-based. On the procedure: as §1, §2
The test system of data set [5] is Listeria monocytogenes N22-2. The data set is classed as cell-based. The procedure: as §1, §2
Data set [6] concerns Enterococcus faecalis ATCC29212. The data set is classed as cell-based. On the procedure:
as §1, §2

In data set [7] the test system is Pseudomonas aeruginosa ATCC27853. The data set is classed as cell-based. On the procedure:
as §1, §2

Data set [8] deals with Lactococcus lactis IL1403. The data set is classed as cell-based. On the procedure:
as §1, §2

Data set [9] has as its system Escherichia coli ATCC25922. The data set is classed as cell-based. The procedure:
as §1, §2

A further data set concerns horse erythrocytes. Also on record: method as in PMID 26656394. The following applies: cited from earlier work.
For data set [10], the system named is all the tested bacterial species including Gram-positive and Gram-negative bacteria. On the procedure:
as §2, with “The range of peptide concentrations analyzed was 0.125–64 μg/ml for the high purity peptides and 0.06–32 μg/ml for peptides of the variant library.” left out
To identify Cap18 variant peptides with changed species specificity, the antimicrobial screening data of Y. ruckeri, A. salmonicida, S. Typhimurium and L. lactis was compared.
In addition, three Cap18 derivatives harboring either a I13F, I13M or G26T substitution were ordered as positive controls. […] The antimicrobial activity of the highly pure peptides was determined by measuring the MIC value of each derivative against the four test strains Y. ruckeri, A. salmonicida, S.Typhimurium and L. lactis (Table 6). […] In addition to the additional screening strains, a wider range of relevant pathogens including Gram-positive and Gram-negative bacteria was analyzed for targeted antimicrobial activity.

Like-named read-outs stand apart in the source and are kept apart here. Where no end group is shown, it is not given here.

For “GLRKRLRKFRNKIKEKLKKIGQKIQGLLPKLAPRTDY [Cap18]”, the Thermostability result in data set [1] is on record as “highly thermostable”. In data set [2], the “MIC S. Typhimurium” value was 2 to 4 µg/mL and the “MIC S. Typhimurium LT2” value fell in the range of 4 to 8 µg/mL. Moreover, in data set [3], the “MIC A. salmonicida” value was 2 µg/mL and the “MIC A. salmonicida ATCC33658” value was 4 µg/mL. The “MIC Y. ruckeri” value in data set [4] was 2 µg/mL. Further, the “MIC Y. ruckeri 392/2003” value in [4] (high purity peptides, Mueller-Hinton-II, RT (20 °C), 0.125–64 μg/ml, triplicates) lay within 2 to 4 µg/mL. Also, in data set [5], the “MIC L. monocytogenes N22-2” value is 4 µg/mL. Further, the “MIC E. faecalis ATCC29212” value in data set [6] came out at 8 µg/mL. Further, the “MIC P. aeruginosa ATCC27853” value in [7] lay in the range of 4 to 8 µg/mL. In addition, in data set [8], the “MIC L. lactis” value lay in the range of 2 to 4 µg/mL and the “MIC L. lactis IL1403” value fell in the range of 1 to 2 µg/mL. In addition, the “MIC E. coli ATCC25922” value in data set [9] was in the range of 4 to 8 µg/mL. In addition, the “Hemolytic activity in vitro” value in the data set with horse erythrocytes is recorded as “no hemolytic activity”.
As for “GLRKRLRKFRNKDKEKLKKIGQKIQGLLPKLAPRTDY [Peptide 3]”, in [10], the “MIC against all the tested bacterial species” value is at least 32 µg/mL. Besides, the “MIC S. Typhimurium LT2” value in data set [2] was at least 64 µg/mL. The “MIC A. salmonicida ATCC33658” value in [3] was at least 64 µg/mL. Besides, in [4], the “MIC Y. ruckeri 392/2003” value is at least 64 µg/mL. Further, in [5], the “MIC L. monocytogenes N22-2” value was 32 to 64 µg/mL. Besides, the “MIC E. faecalis ATCC29212” value in data set [6] is at least 64 µg/mL. Moreover, the “MIC P. aeruginosa ATCC27853” value in data set [7] is at least 64 µg/mL. Further, in data set [8], the “MIC L. lactis IL1403” value is at least 64 µg/mL. Also, the “MIC E. coli ATCC25922” value in [9] was at least 64 µg/mL.
On to “GLRKRLRKFRNKIKEKPKKIGQKIQGLLPKLAPRTDY [Peptide 18]”, for which, in data set [10], the “MIC against all the tested bacterial species” value was at least 32 µg/mL. Further, the “MIC S. Typhimurium LT2” value in [2] was at least 64 µg/mL. In addition, the “MIC A. salmonicida ATCC33658” value in data set [3] was at least 64 µg/mL. In addition, in data set [5], the “MIC L. monocytogenes N22-2” value is at least 64 µg/mL. Further, the “MIC E. faecalis ATCC29212” value in [6] is at least 64 µg/mL. The “MIC P. aeruginosa ATCC27853” value in data set [7] was at least 64 µg/mL. Moreover, in data set [8], the “MIC L. lactis IL1403” value is at least 64 µg/mL. Moreover, in data set [9], the “MIC E. coli ATCC25922” value is at least 64 µg/mL.
For “GLRKRLRKFRNKIKEKLKKIGQKDQGLLPKLAPRTDY [Peptide 26]”, the “MIC against all the tested bacterial species” value in [10] is at least 32 µg/mL. Besides, the “MIC S. Typhimurium LT2” value in data set [2] is at least 64 µg/mL. Besides, the “MIC A. salmonicida ATCC33658” value in [3] is at least 64 µg/mL. Besides, the “MIC Y. ruckeri 392/2003” value in data set [4] was at least 64 µg/mL. The “MIC L. monocytogenes N22-2” value in [5] was at least 64 µg/mL. Besides, the “MIC E. faecalis ATCC29212” value in [6] is at least 64 µg/mL. Besides, in data set [7], the “MIC P. aeruginosa ATCC27853” value is at least 64 µg/mL. In addition, the “MIC L. lactis IL1403” value in data set [8] is at least 64 µg/mL. Further, the “MIC E. coli ATCC25922” value in data set [9] is at least 64 µg/mL.
Regarding “GLRKRLRKFRNKIKEKLKKIGQKNQGLLPKLAPRTDY [Peptide 28]”, the “MIC against all the tested bacterial species” value in data set [10] was at least 32 µg/mL. Besides, the “MIC S. Typhimurium LT2” value in [2] was 32 µg/mL. Also, the “MIC L. monocytogenes N22-2” value in [5] amounted to 32 µg/mL.
For “GLRKRLRKFRNKIKEDLKKIGQKIQGLLPKLAPRTDY [Peptide 10]”, the “MIC S. Typhimurium LT2” value in data set [2] stood at 4 µg/mL. The “MIC A. salmonicida ATCC33658” value in data set [3] was 2 to 4 µg/mL. Further, the “MIC Y. ruckeri 392/2003” value in [4] came out at 4 µg/mL. Besides, the “MIC L. monocytogenes N22-2” value in data set [5] lay within 4 to 8 µg/mL. Also, in data set [6], the “MIC E. faecalis ATCC29212” value came out at 32 µg/mL. For the same sequence, in data set [7], the “MIC P. aeruginosa ATCC27853” value lay in the range of 16 to 32 µg/mL. Further, the “MIC L. lactis IL1403” value in [8] is 2 µg/mL. Moreover, in data set [9], the “MIC E. coli ATCC25922” value lay within 4 to 8 µg/mL.
“GLRKRLRKFRNKIKEKLKKIGQKGQGLLPKLAPRTDY [Peptide 27]”: in [2], the “MIC S. Typhimurium” value is 4 µg/mL and the “MIC S. Typhimurium LT2” value was in the range of 8 to 16 µg/mL. In data set [3], the “MIC A. salmonicida” value is 8 µg/mL and the “MIC A. salmonicida ATCC33658” value was determined as 8 µg/mL. Moreover, in data set [4], the “MIC Y. ruckeri” value came out at 16 µg/mL and the “MIC Y. ruckeri 392/2003” value came to 32 µg/mL. Besides, in data set [5], the “MIC L. monocytogenes N22-2” value is 32 µg/mL. For the same sequence, the “MIC E. faecalis ATCC29212” value in data set [6] was at least 64 µg/mL. In addition, the “MIC P. aeruginosa ATCC27853” value in data set [7] worked out at 16 µg/mL. Also, the “MIC L. lactis IL1403” value in data set [8] is at least 64 µg/mL. In addition, the “MIC E. coli ATCC25922” value in data set [9] was at least 64 µg/mL.
On to “GLRKRLRKFRNKMKEKLKKIGQKIQGLLPKLAPRTDY [Peptide 6]”, for which the “MIC S. Typhimurium LT2” value in [2] was found to be 8 µg/mL. Besides, in [3], the “MIC A. salmonicida ATCC33658” value came to 4 µg/mL. In data set [4], the “MIC Y. ruckeri 392/2003” value was found to be 4 µg/mL. In addition, the “MIC L. monocytogenes N22-2” value in data set [5] was 4 µg/mL. For the same sequence, the “MIC E. faecalis ATCC29212” value in data set [6] lay in the range of 8 to 16 µg/mL. The “MIC P. aeruginosa ATCC27853” value in data set [7] lay within 8 to 16 µg/mL. In data set [8], the “MIC L. lactis IL1403” value is 2 µg/mL. In data set [9], the “MIC E. coli ATCC25922” value was in the range of 8 to 16 µg/mL.
With “GLRKRLRKFRNKIKEKDKKIGQKIQGLLPKLAPRTDY [Peptide 16]”, the “MIC against all the tested bacterial species” value in data set [10] was at least 32 µg/mL. Further, the “MIC A. salmonicida ATCC33658” value in [3] is at least 64 µg/mL. In data set [5], the “MIC L. monocytogenes N22-2” value is at least 64 µg/mL. The “MIC E. faecalis ATCC29212” value in data set [6] was at least 64 µg/mL. The “MIC P. aeruginosa ATCC27853” value in [7] was at least 64 µg/mL. Moreover, the “MIC L. lactis IL1403” value in [8] was at least 64 µg/mL.
As for “GLRKRLRKFRNKIKEKKKKIGQKIQGLLPKLAPRTDY [Peptide 17]”, in data set [2], the “MIC S. Typhimurium” value turned out to be 4 µg/mL and the “MIC S. Typhimurium LT2” value turned out to be 16 µg/mL. Moreover, in data set [3], the “MIC A. salmonicida” value worked out at 4 µg/mL and the “MIC A. salmonicida ATCC33658” value was 16 to 32 µg/mL. The “MIC Y. ruckeri 392/2003” value in data set [4] is at least 64 µg/mL. Further, the “MIC L. monocytogenes N22-2” value in data set [5] was in the range of 16 to 32 µg/mL. In data set [6], the “MIC E. faecalis ATCC29212” value is at least 64 µg/mL. Further, the “MIC P. aeruginosa ATCC27853” value in data set [7] was determined as 8 µg/mL. For the same sequence, the “MIC L. lactis IL1403” value in [8] is at least 64 µg/mL. Moreover, the “MIC E. coli ATCC25922” value in data set [9] is at least 64 µg/mL.
